This note sets out measurements from patent publication US9200051B2, “Peptide compound” (TAKEDA PHARMACEUTICAL COMPANY LIMITED, priority 2013, dated 2015).

Like-named read-outs stand apart in the source and are kept apart here. Square brackets hold non-standard residues; d marks the D form. Peptide text beside a SMILES is read from it. * marks the point of attachment. Tyr(Nα-amidino) = N=C(N)N[C@@H](Cc1ccc(O)cc1)C(=O)*; Cyclopropanecarbonyl = O=C(C1CC1)*; αMeF = C[C@](N)(Cc1ccccc1)C(=O)O; Cha = N[C@@H](CC1CCCCC1)C(=O)O; Aib = CC(C)(N)C(=O)O; Bz = O=C(c1ccccc1)* A value given as a limit tells only on which side of the number the result lay.

Common to all, as to type: cell-based
The target of one experiment is T1, human GIPR (Homo sapiens, UniProt P48546).
T1 construct: expressed in transfected cells; host or cells: CHO-K1 (CRE-LUC/CHO-K1), plasmid hGIPR/pMSRα-neo
T1 sequence (P48546 22-466): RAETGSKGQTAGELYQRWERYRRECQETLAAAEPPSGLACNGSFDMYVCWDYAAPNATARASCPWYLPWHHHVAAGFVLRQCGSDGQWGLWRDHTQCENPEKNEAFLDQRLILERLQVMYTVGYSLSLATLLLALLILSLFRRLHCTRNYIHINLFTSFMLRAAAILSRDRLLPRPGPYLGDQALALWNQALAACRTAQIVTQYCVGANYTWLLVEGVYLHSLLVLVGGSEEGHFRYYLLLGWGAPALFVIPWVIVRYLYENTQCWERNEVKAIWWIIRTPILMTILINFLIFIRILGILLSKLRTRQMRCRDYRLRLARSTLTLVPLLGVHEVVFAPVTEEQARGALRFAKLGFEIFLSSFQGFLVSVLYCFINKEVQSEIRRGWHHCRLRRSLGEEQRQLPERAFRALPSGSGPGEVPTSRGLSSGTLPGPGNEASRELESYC
The experiment is described as follows: Agonist activity against human GIPR, CRE-luciferase reporter assay (rise in intracellular cAMP) in hGIPR/CRE-LUC/CHO-K1 cells. (In a reporter assay the amount or activity of a reporter protein is the signal.)

For the next experiment, the target named is T2, human glucagon R (Homo sapiens, UniProt P47871).
T2 construct: expressed in transfected cells; host or cells: CHO-K1 (CRE-LUC/CHO-K1), plasmid hGlucagonR/pMSRα-neo
The experiment is described as follows: Agonist activity against human glucagon R, CRE-luciferase reporter assay in hGlucagonR/CRE-LUC/CHO-K1 cells.

For the next experiment, the target named is T3, human GLP-1R (Homo sapiens, UniProt P43220).
T3 construct: expressed in transfected cells; host or cells: CHO-K1, plasmids hGLP-1/pIRESneo3 and Cre-luc(Zeo)
The experiment is described as follows: Agonist activity against human GLP-1R, CRE-luciferase reporter assay in hGLP-1R/CRE-luc/CHO-K1 cells.

T3 sequence (P43220 24-463): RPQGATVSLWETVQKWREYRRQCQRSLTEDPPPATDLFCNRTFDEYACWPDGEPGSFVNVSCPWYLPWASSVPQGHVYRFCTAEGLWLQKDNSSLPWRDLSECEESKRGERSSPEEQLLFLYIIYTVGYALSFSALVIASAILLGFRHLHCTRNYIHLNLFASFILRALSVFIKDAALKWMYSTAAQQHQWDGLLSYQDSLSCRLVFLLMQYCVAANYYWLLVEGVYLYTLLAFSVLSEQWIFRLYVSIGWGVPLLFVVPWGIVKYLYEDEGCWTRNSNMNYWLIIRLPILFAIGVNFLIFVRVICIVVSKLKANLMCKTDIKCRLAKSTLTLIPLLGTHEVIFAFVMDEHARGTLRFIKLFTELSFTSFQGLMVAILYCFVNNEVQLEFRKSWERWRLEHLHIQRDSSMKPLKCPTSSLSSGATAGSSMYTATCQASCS
T2 sequence (P47871 26-477): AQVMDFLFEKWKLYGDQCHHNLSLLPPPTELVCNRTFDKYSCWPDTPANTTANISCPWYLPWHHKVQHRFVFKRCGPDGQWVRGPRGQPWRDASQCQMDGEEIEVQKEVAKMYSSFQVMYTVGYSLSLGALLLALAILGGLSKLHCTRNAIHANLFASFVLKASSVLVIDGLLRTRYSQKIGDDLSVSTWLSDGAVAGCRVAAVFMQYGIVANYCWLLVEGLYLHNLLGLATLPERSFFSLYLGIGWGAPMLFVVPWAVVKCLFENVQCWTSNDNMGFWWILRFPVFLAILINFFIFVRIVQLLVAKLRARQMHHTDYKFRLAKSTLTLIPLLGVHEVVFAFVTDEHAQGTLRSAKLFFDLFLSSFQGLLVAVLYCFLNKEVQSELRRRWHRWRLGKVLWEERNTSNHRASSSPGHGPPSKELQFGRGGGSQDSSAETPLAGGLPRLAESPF

One may read the EC50 as the concentration that produces a half-maximal response. On to `CC(C)C[C@H](NC(=O)[C@H](CC(C)C)NC(=O)[C@H](Cc1c[nH]c2ccccc12)NC(=O)[C@H](CCCCN)NC(=O)[C@@H](NC(=O)[C@H](Cc1ccccc1)NC(=O)[C@H](CCC(=O)O)NC(=O)[C@H](C)NC(=O)[C@H](CCC(N)=O)NC(=O)[C@H](C)NC(=O)[C@H](CCC(N)=O)NC(=O)[C@H](CCCCN)NC(=O)[C@H](CC(=O)O)NC(=O)[C@H](CC(C)C)NC(=O)C(C)(C)NC(=O)[C@H](C)NC(=O)C(C)(C)NC(=O)[C@H](Cc1ccc(O)cc1)NC(=O)[C@H](CC(=O)O)NC(=O)[C@H](CO)NC(=O)[C@@H](NC(=O)[C@](C)(Cc1ccccc1)NC(=O)[C@@H](NC(=O)CNC(=O)[C@H](CCC(=O)O)NC(=O)C(C)(C)NC(=O)[C@@H](N)Cc1ccc(O)cc1)[C@@H](C)O)[C@@H](C)O)C(C)C)C(=O)N[C@@H](CCCCN)C(=O)NCC(=O)NCC(=O)N1CCC[C@H]1C(=O)N[C@@H](CO)C(=O)N[C@@H](CO)C(=O)NCC(=O)N[C@@H](C)C(=O)N1CCC[C@H]1C(=O)N1CCC[C@H]1C(=O)N1CCC[C@H]1C(=O)N[C@@H](CO)C(=O)N[C@@H](CCCCN)C(N)=O` [Example 10] (H-Y[Aib]EGT[αMeF]TSDY[Aib]A[Aib]LDKQAQAEFVKWLLKGGPSSGAPPPSK-NH2), for which the EC50 on human GIPR is 0.0054 nM; on human glucagon R it was greater than 1000 nM; at human GLP-1R, 0.0083 nM.
For the compound `CC[C@H](C)[C@H](NC(=O)C(C)(C)NC(=O)[C@H](Cc1ccc(O)cc1)NC(=O)[C@H](CC(=O)O)NC(=O)[C@H](CO)NC(=O)[C@@H](NC(=O)[C@](C)(Cc1ccccc1)NC(=O)[C@@H](NC(=O)CNC(=O)[C@H](CCC(=O)O)NC(=O)C(C)(C)NC(=O)[C@H](Cc1ccc(O)cc1)NC(=O)C1CC1)[C@@H](C)O)[C@@H](C)O)C(=O)NC(C)(C)C(=O)N[C@@H](CC(C)C)C(=O)N[C@@H](CC(=O)O)C(=O)N[C@@H](CCCCN)C(=O)N[C@@H](CCC(N)=O)C(=O)N[C@@H](C)C(=O)N[C@@H](CCC(N)=O)C(=O)N[C@@H](C)C(=O)N[C@@H](CCC(=O)O)C(=O)N[C@@H](Cc1ccccc1)C(=O)N[C@H](C(=O)N[C@@H](CCCCN)C(=O)N[C@@H](Cc1c[nH]c2ccccc12)C(=O)N[C@@H](CC(C)C)C(=O)N[C@@H](CC(C)C)C(=O)N[C@@H](CCCCN)C(=O)NCC(=O)NCC(=O)N1CCC[C@H]1C(=O)N[C@@H](CO)C(=O)N[C@@H](CO)C(=O)NCC(=O)N[C@@H](C)C(=O)N1CCC[C@H]1C(=O)N1CCC[C@H]1C(=O)N1CCC[C@H]1C(=O)N[C@@H](CO)C(=O)N[C@@H](CCCCN)C(N)=O)C(C)C` [Example 21] (Cyclopropanecarbonyl-Y[Aib]EGT[αMeF]TSDY[Aib]I[Aib]LDKQAQAEFVKWLLKGGPSSGAPPPSK-NH2), the EC50 at human GIPR (hGIPR/CRE-LUC/CHO-K1 cells, 4 hours incubation, 10 nM GIP = 100%, read-out: Agonist activity (EC50) hGIPR) is 0.024 nM; at human glucagon R (hGlucagonR/CRE-LUC/CHO-K1 cells, 4 hours incubation, 10 nM glucagon = 100%, read-out: Agonist activity (EC50) hGCGR), greater than 1000 nM; on human GLP-1R (hGLP-1R/CRE-luc/CHO-K1 cells, 4 hours incubation, 10 nM GLP-1 = 100%, read-out: Agonist activity (EC50) hGLP-1R), 0.055 nM.
With `CC(C)C[C@H](NC(=O)[C@H](CC(C)C)NC(=O)[C@H](Cc1c[nH]c2ccccc12)NC(=O)[C@H](CCCCN)NC(=O)[C@@H](NC(=O)[C@H](Cc1ccccc1)NC(=O)[C@H](CCC(=O)O)NC(=O)[C@H](C)NC(=O)[C@H](CCC(N)=O)NC(=O)[C@H](C)NC(=O)[C@H](CCC(N)=O)NC(=O)[C@H](CCCCN)NC(=O)[C@H](CC(=O)O)NC(=O)[C@H](CC(C)C)NC(=O)[C@H](CC1CCCCC1)NC(=O)[C@H](CCCCN)NC(=O)C(C)(C)NC(=O)[C@H](Cc1ccc(O)cc1)NC(=O)[C@H](CC(=O)O)NC(=O)[C@H](CO)NC(=O)[C@@H](NC(=O)[C@](C)(Cc1ccccc1)NC(=O)[C@@H](NC(=O)CNC(=O)[C@H](CCC(=O)O)NC(=O)C(C)(C)NC(=O)[C@@H](N)Cc1ccc(O)cc1)[C@@H](C)O)[C@@H](C)O)C(C)C)C(=O)N[C@@H](CCCCN)C(=O)NCC(=O)NCC(=O)N1CCC[C@H]1C(=O)N[C@@H](CO)C(=O)N[C@@H](CO)C(=O)NCC(=O)N[C@@H](C)C(=O)N1CCC[C@H]1C(=O)N1CCC[C@H]1C(=O)N1CCC[C@H]1C(=O)N[C@@H](CO)C(=O)N[C@@H](CCCCN)C(N)=O` [Example 16] (H-Y[Aib]EGT[αMeF]TSDY[Aib]K[Cha]LDKQAQAEFVKWLLKGGPSSGAPPPSK-NH2), the EC50 is 0.0091 nM at human GIPR, greater than 1000 nM at human glucagon R and 0.015 nM on human GLP-1R.
In the same order, the values of `CC[C@H](C)[C@H](NC(=O)[C@H](C)NC(=O)[C@H](Cc1ccc(O)cc1)NC(=O)[C@H](CC(=O)O)NC(=O)[C@H](CO)NC(=O)[C@@H](NC(=O)[C@](C)(Cc1ccccc1)NC(=O)[C@@H](NC(=O)CNC(=O)[C@H](CCC(=O)O)NC(=O)C(C)(C)NC(=O)[C@@H](N)Cc1ccc(O)cc1)[C@@H](C)O)[C@@H](C)O)C(=O)NC(C)(C)C(=O)N[C@@H](CC(C)C)C(=O)N[C@@H](CC(=O)O)C(=O)N[C@@H](CCCCN)C(=O)N[C@@H](CCC(N)=O)C(=O)N[C@@H](C)C(=O)N[C@@H](CCC(N)=O)C(=O)N[C@@H](CO)C(=O)N[C@@H](CCC(=O)O)C(=O)N[C@@H](Cc1ccccc1)C(=O)N[C@H](C(=O)N[C@@H](CCCCN)C(=O)N[C@@H](Cc1c[nH]c2ccccc12)C(=O)N[C@@H](CC(C)C)C(=O)N[C@@H](CC(C)C)C(=O)N[C@@H](CCCCN)C(=O)NCC(=O)NCC(=O)N1CCC[C@H]1C(=O)N[C@@H](CO)C(=O)N[C@@H](CO)C(=O)NCC(=O)N[C@@H](C)C(=O)N1CCC[C@H]1C(=O)N1CCC[C@H]1C(=O)N1CCC[C@H]1C(=O)N[C@@H](CO)C(=O)N[C@@H](CCCCN)C(N)=O)C(C)C` [Example 3] (H-Y[Aib]EGT[αMeF]TSDYAI[Aib]LDKQAQSEFVKWLLKGGPSSGAPPPSK-NH2) are 0.0071 nM, greater than 1000 nM and 0.013 nM.
Regarding `CC[C@H](C)[C@H](NC(=O)C(C)(C)NC(=O)[C@H](Cc1ccc(O)cc1)NC(=O)[C@H](CC(=O)O)NC(=O)[C@H](CO)NC(=O)[C@@H](NC(=O)[C@](C)(Cc1ccccc1)NC(=O)[C@@H](NC(=O)CNC(=O)[C@H](CCC(=O)O)NC(=O)C(C)(C)NC(=O)[C@H](Cc1ccc(O)cc1)NC(=O)c1ccccc1)[C@@H](C)O)[C@@H](C)O)C(=O)NC(C)(C)C(=O)N[C@@H](CC(C)C)C(=O)N[C@@H](CC(=O)O)C(=O)N[C@@H](CCCCN)C(=O)N[C@@H](CCC(N)=O)C(=O)N[C@@H](C)C(=O)N[C@@H](CCC(N)=O)C(=O)N[C@@H](C)C(=O)N[C@@H](CCC(=O)O)C(=O)N[C@@H](Cc1ccccc1)C(=O)N[C@H](C(=O)N[C@@H](CCCCN)C(=O)N[C@@H](Cc1c[nH]c2ccccc12)C(=O)N[C@@H](CC(C)C)C(=O)N[C@@H](CC(C)C)C(=O)N[C@@H](CCCCN)C(=O)NCC(=O)NCC(=O)N1CCC[C@H]1C(=O)N[C@@H](CO)C(=O)N[C@@H](CO)C(=O)NCC(=O)N[C@@H](C)C(=O)N1CCC[C@H]1C(=O)N1CCC[C@H]1C(=O)N1CCC[C@H]1C(=O)N[C@@H](CO)C(=O)N[C@@H](CCCCN)C(N)=O)C(C)C` [Example 19] (Bz-Y[Aib]EGT[αMeF]TSDY[Aib]I[Aib]LDKQAQAEFVKWLLKGGPSSGAPPPSK-NH2), the half-maximal effective concentration (EC50) is 0.024 nM at human GIPR, greater than 1000 nM at human glucagon R and 0.037 nM at human GLP-1R.
Regarding `CC[C@H](C)[C@H](NC(=O)C(C)(C)NC(=O)[C@H](Cc1ccc(O)cc1)NC(=O)[C@H](CC(=O)O)NC(=O)[C@H](CO)NC(=O)[C@@H](NC(=O)[C@](C)(Cc1ccccc1)NC(=O)[C@@H](NC(=O)CNC(=O)[C@H](CCC(=O)O)NC(=O)C(C)(C)NC(=O)[C@H](Cc1ccc(O)cc1)NC(=N)N)[C@@H](C)O)[C@@H](C)O)C(=O)NC(C)(C)C(=O)N[C@@H](CC(C)C)C(=O)N[C@@H](CC(=O)O)C(=O)N[C@@H](CCCCN)C(=O)N[C@@H](CCC(N)=O)C(=O)N[C@@H](C)C(=O)N[C@@H](CCC(N)=O)C(=O)N[C@@H](C)C(=O)N[C@@H](CCC(=O)O)C(=O)N[C@@H](Cc1ccccc1)C(=O)N[C@H](C(=O)N[C@@H](CCCCN)C(=O)N[C@@H](Cc1c[nH]c2ccccc12)C(=O)N[C@@H](CC(C)C)C(=O)N[C@@H](CC(C)C)C(=O)N[C@@H](CCCCN)C(=O)NCC(=O)NCC(=O)N1CCC[C@H]1C(=O)N[C@@H](CO)C(=O)N[C@@H](CO)C(=O)NCC(=O)N[C@@H](C)C(=O)N1CCC[C@H]1C(=O)N1CCC[C@H]1C(=O)N1CCC[C@H]1C(=O)N[C@@H](CO)C(=O)N[C@@H](CCCCN)C(N)=O)C(C)C` [Example 22] ({Tyr(Nα-amidino)}-[Aib]EGT[αMeF]TSDY[Aib]I[Aib]LDKQAQAEFVKWLLKGGPSSGAPPPSK-NH2), the half-maximal effective concentration (EC50) was 0.019 nM on human GIPR, greater than 1000 nM at human glucagon R and 0.035 nM on human GLP-1R.
